The test system of test [1] is Human immunodeficiency virus 1. Kind of test: Antiviral activity against HIV-1 clinical isolate R5-91US-4 infected in human CEMx174 5.25M7 cells assessed as reduction in p24 antigen level measured after 4 days by ELISA. It counts as functional, organism-based. Conditions: Human immunodeficiency virus 1, clinical isolate R5-91US-4, CEMx174 5.25M7, 96 h. In general terms: An ELISA detects its analyte on a solid surface through an enzyme-linked reagent.

The subject of test [2] is Human immunodeficiency virus 1. Briefly: Antiviral activity against HIV-1 clinical isolate 97 TH-NP1525 infected in human CEMx174 5.25M7 cells assessed as reduction in p24 antigen level measured after 4 days by ELISA. The test is classed as functional, organism-based. The conditions noted are these: Human immunodeficiency virus 1, clinical isolate 97 TH-NP1525, CEMx174 5.25M7, 96 h.

Test [3] has as its system Human immunodeficiency virus 1. Kind of test: Antiviral activity against HIV-1 clinical isolate X4-89BZ167 infected in human CEMx174 5.25M7 cells assessed as reduction in p24 antigen level measured after 4 days by ELISA. It counts as functional, organism-based. The conditions noted are these: Human immunodeficiency virus 1, clinical isolate X4-89BZ167, CEMx174 5.25M7, 96 h.

The target in test [4] is C-C chemokine receptor type 5 (Homo sapiens, UniProt P51681). Kind of test: Antagonist activity at CCR5 (unknown origin) expressed in HEK293 cells co-expressing Galpha16 assessed as intracellular calcium change incubated for 60 mins by Fluo-4 AM calcium flux based FLIPR assay. The test is classed as functional, cell-based. Background: A change in cytosolic calcium serves as a functional read-out for many receptors and channels.

Test [5] relates to Human immunodeficiency virus 1. Kind of test: Antiviral activity against HIV-1 clinical isolate X4-92UG024 infected in human CEMx174 5.25M7 cells assessed as reduction in p24 antigen level measured after 4 days by ELISA. Conditions: Human immunodeficiency virus 1, clinical isolate X4-92UG024, CEMx174 5.25M7, 96 h. The test is classed as functional, organism-based.
In test [6] the test system is Human immunodeficiency virus 1. Briefly: Antiviral activity against HIV-1 Bal-R5 infected in human CEMx174 5.25M7 cells assessed as reduction in p24 antigen level measured after 4 days by ELISA. It counts as functional, organism-based. Conditions: Human immunodeficiency virus 1, Bal-R5, CEMx174 5.25M7, 96 h.
Test [7] has as its system Human immunodeficiency virus 1. Kind of test: Antiviral activity against HIV-1 clinical isolate R5-J32228M4 infected in human CEMx174 5.25M7 cells assessed as reduction in p24 antigen level measured after 4 days by ELISA. It counts as functional, organism-based. The conditions noted are these: Human immunodeficiency virus 1, clinical isolate R5-J32228M4, CEMx174 5.25M7, 96 h.

Side chains are listed from the residue outwards. Peptide text beside a SMILES is read from it. * marks the point of attachment. PEG24 = NCCOCCOCCOCCOCCOCCOCCOCCOCCOCCOCCOCCOCCOCCOCCOCCOCCOCCOCCOCCOCCOCCOCCOCCOCCC(=O)O; X3 = Cc1ccc(N(CCCN2CCN(Cc3ccc(F)cc3)CC2)C(=O)C2CCN(C(=O)COCC(=O)*)CC2)cc1Cl; X1 = CC(=O)N1CCC(C(=O)N(CCCN2CCC(Cc3ccc(C(=O)*)cc3)CC2)c2ccc(C)c(Cl)c2)CC1; PEG12 = NCCOCCOCCOCCOCCOCCOCCOCCOCCOCCOCCOCCOCCC(=O)O; PEG8 = NCCOCCOCCOCCOCCOCCOCCOCCOCCC(=O)O; PEG4 = NCCOCCOCCOCCOCCC(=O)O

Results on nine molecules are retold here after ChEMBL document CHEMBL5360545, “Multitargeted drug design strategy for discovery of short-peptide-based HIV-1 entry inhibitors with high potency” (Eur J Med Chem, 2023).

C-C chemokine receptor type 5, sequence (P51681 whole entry): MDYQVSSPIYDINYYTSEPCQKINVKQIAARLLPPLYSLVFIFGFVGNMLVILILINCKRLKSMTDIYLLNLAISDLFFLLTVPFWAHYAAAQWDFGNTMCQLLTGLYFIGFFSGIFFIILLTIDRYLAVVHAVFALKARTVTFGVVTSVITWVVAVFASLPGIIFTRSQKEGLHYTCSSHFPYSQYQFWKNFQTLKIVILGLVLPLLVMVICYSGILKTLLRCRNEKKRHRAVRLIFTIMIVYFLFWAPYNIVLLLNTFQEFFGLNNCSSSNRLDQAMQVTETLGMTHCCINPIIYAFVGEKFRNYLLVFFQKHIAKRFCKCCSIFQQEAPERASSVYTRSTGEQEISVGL

On to `CC(=O)N1CCC(C(=O)N(CCCN2CCC(Cc3ccc(C(N)=O)cc3)CC2)c2ccc(C)c(Cl)c2)CC1`, for which the EC50 was 12.1 nM in test [1]; greater than 300 nM in test [2]; greater than 300 nM in test [3]; greater than 300 nM in test [5]; 9.03 nM in test [6]; 161 nM in test [7]. The IC50 in test [4] stood at 0.83 nM. In the case of `CC[C@H](C)[C@H](NC(C)=O)C(=O)N[C@@H](CCC(=O)O)C(=O)N[C@@H](CCC(=O)O)C(=O)N[C@@H](CC(C)C)C(=O)N[C@H](C(=O)N[C@@H](CCCNC(=N)N)C(=O)N[C@@H](C)C(=O)N[C@@H](C)C(=O)N[C@@H](CCC(N)=O)C(=O)N[C@@H](CCC(=O)O)C(=O)N[C@@H](CCC(N)=O)C(=O)N[C@@H](CCC(N)=O)C(=O)N[C@@H](CCCNC(=N)N)C(=O)N[C@@H](CCCCN)C(=O)N[C@@H](CC(N)=O)C(=O)N[C@@H](CCC(=O)O)C(=O)N[C@@H](CCC(=O)O)C(=O)N[C@@H](C)C(=O)N[C@@H](CC(C)C)C(=O)N[C@@H](CCCNC(=N)N)C(=O)N[C@@H](CCC(=O)O)C(=O)N[C@@H](CC(C)C)C(=O)N[C@@H](CCCCNC(=O)CCOCCOCCOCCOCCOCCOCCOCCOCCOCCOCCOCCOCCNC(=O)COCC(=O)N1CCC(C(=O)N(CCCN2CCN(Cc3ccc(F)cc3)CC2)c2ccc(C)c(Cl)c2)CC1)C(N)=O)[C@@H](C)CC` (Ac-IEELIRAAQEQQRKNEEALRELK([PEG12-X3])-NH2), in test [6], the EC50 came out at 6.26 nM. Take `CC[C@H](C)[C@H](NC(C)=O)C(=O)N[C@@H](CCC(=O)O)C(=O)N[C@@H](CCC(=O)O)C(=O)N[C@@H](CC(C)C)C(=O)N[C@H](C(=O)N[C@@H](CCCNC(=N)N)C(=O)N[C@@H](C)C(=O)N[C@@H](C)C(=O)N[C@@H](CCC(N)=O)C(=O)N[C@@H](CCC(=O)O)C(=O)N[C@@H](CCC(N)=O)C(=O)N[C@@H](CCC(N)=O)C(=O)N[C@@H](CCCNC(=N)N)C(=O)N[C@@H](CCCCN)C(=O)N[C@@H](CC(N)=O)C(=O)N[C@@H](CCC(=O)O)C(=O)N[C@@H](CCC(=O)O)C(=O)N[C@@H](C)C(=O)N[C@@H](CC(C)C)C(=O)N[C@@H](CCCNC(=N)N)C(=O)N[C@@H](CCC(=O)O)C(=O)N[C@@H](CC(C)C)C(=O)N[C@@H](CCCCNC(=O)CCOCCOCCOCCOCCOCCOCCOCCOCCOCCOCCOCCOCCOCCOCCOCCOCCOCCOCCOCCOCCOCCOCCOCCOCCNC(=O)c1ccc(CC2CCN(CCCN(C(=O)C3CCN(C(C)=O)CC3)c3ccc(C)c(Cl)c3)CC2)cc1)C(N)=O)[C@@H](C)CC` (Ac-IEELIRAAQEQQRKNEEALRELK([PEG24-X1])-NH2): the EC50 in test [6] worked out at 0.26 nM. Turning to `CC[C@H](C)[C@H](NC(=O)[C@H](CCCCN)NC(=O)[C@H](CCC(N)=O)NC(=O)[C@H](CCC(=O)O)NC(=O)[C@H](Cc1c[nH]c2ccccc12)NC(C)=O)C(=O)N[C@@H](CCC(=O)O)C(=O)N[C@@H](CCC(=O)O)C(=O)N[C@@H](CC(C)C)C(=O)N[C@@H](CC(C)C)C(=O)N[C@@H](CCCCN)C(=O)N[C@@H](CCCCN)C(=O)N[C@@H](C)C(=O)N[C@@H](CCC(=O)O)C(=O)N[C@@H](CCC(=O)O)C(=O)N[C@@H](CCC(N)=O)C(=O)N[C@@H](CCC(N)=O)C(=O)N[C@@H](CCCCN)C(=O)N[C@@H](CCCCN)C(=O)N[C@@H](CC(N)=O)C(=O)N[C@@H](CCC(=O)O)C(=O)N[C@@H](CCC(=O)O)C(=O)N[C@@H](CCC(=O)O)C(=O)N[C@@H](CC(C)C)C(=O)N[C@@H](CCCCN)C(=O)N[C@@H](CCCCN)C(=O)N[C@@H](CC(C)C)C(=O)N[C@@H](CCC(=O)O)C(=O)N[C@@H](CCCCN)C(=O)N[C@@H](CCCCNC(=O)c1ccc(CC2CCN(CCCN(C(=O)C3CCN(C(C)=O)CC3)c3ccc(C)c(Cl)c3)CC2)cc1)C(N)=O` (Ac-WEQKIEELLKKAEEQQKKNEEELKKLEKK(X1)-NH2), the EC50 in test [6] turned out to be 1.75 nM.

Take `CC[C@H](C)[C@H](NC(=O)[C@H](CCCCN)NC(=O)[C@H](CCC(N)=O)NC(=O)[C@H](CCC(=O)O)NC(=O)[C@H](Cc1c[nH]c2ccccc12)NC(C)=O)C(=O)N[C@@H](CCC(=O)O)C(=O)N[C@@H](CCC(=O)O)C(=O)N[C@@H](CC(C)C)C(=O)N[C@@H](CC(C)C)C(=O)N[C@@H](CCCCN)C(=O)N[C@@H](CCCCN)C(=O)N[C@@H](C)C(=O)N[C@@H](CCC(=O)O)C(=O)N[C@@H](CCC(=O)O)C(=O)N[C@@H](CCC(N)=O)C(=O)N[C@@H](CCC(N)=O)C(=O)N[C@@H](CCCCN)C(=O)N[C@@H](CCCCN)C(=O)N[C@@H](CC(N)=O)C(=O)N[C@@H](CCC(=O)O)C(=O)N[C@@H](CCC(=O)O)C(=O)N[C@@H](CCC(=O)O)C(=O)N[C@@H](CC(C)C)C(=O)N[C@@H](CCCCN)C(=O)N[C@@H](CCCCN)C(=O)N[C@@H](CC(C)C)C(=O)N[C@@H](CCC(=O)O)C(=O)N[C@@H](CCCCN)C(=O)N[C@@H](CCCCNC(=O)CCOCCOCCOCCOCCNC(=O)c1ccc(CC2CCN(CCCN(C(=O)C3CCN(C(C)=O)CC3)c3ccc(C)c(Cl)c3)CC2)cc1)C(N)=O` (Ac-WEQKIEELLKKAEEQQKKNEEELKKLEKK([PEG4-X1])-NH2): the EC50 in test [6] is 1.11 nM. With `CC[C@H](C)[C@H](NC(=O)[C@H](CCCCN)NC(=O)[C@H](CCC(N)=O)NC(=O)[C@H](CCC(=O)O)NC(=O)[C@H](Cc1c[nH]c2ccccc12)NC(C)=O)C(=O)N[C@@H](CCC(=O)O)C(=O)N[C@@H](CCC(=O)O)C(=O)N[C@@H](CC(C)C)C(=O)N[C@@H](CC(C)C)C(=O)N[C@@H](CCCCN)C(=O)N[C@@H](CCCCN)C(=O)N[C@@H](C)C(=O)N[C@@H](CCC(=O)O)C(=O)N[C@@H](CCC(=O)O)C(=O)N[C@@H](CCC(N)=O)C(=O)N[C@@H](CCC(N)=O)C(=O)N[C@@H](CCCCN)C(=O)N[C@@H](CCCCN)C(=O)N[C@@H](CC(N)=O)C(=O)N[C@@H](CCC(=O)O)C(=O)N[C@@H](CCC(=O)O)C(=O)N[C@@H](CCC(=O)O)C(=O)N[C@@H](CC(C)C)C(=O)N[C@@H](CCCCN)C(=O)N[C@@H](CCCCN)C(=O)N[C@@H](CC(C)C)C(=O)N[C@@H](CCC(=O)O)C(=O)N[C@@H](CCCCN)C(=O)N[C@@H](CCCCNC(=O)CCOCCOCCOCCOCCOCCOCCOCCOCCNC(=O)c1ccc(CC2CCN(CCCN(C(=O)C3CCN(C(C)=O)CC3)c3ccc(C)c(Cl)c3)CC2)cc1)C(N)=O` (Ac-WEQKIEELLKKAEEQQKKNEEELKKLEKK([PEG8-X1])-NH2), the EC50 in test [6] came out at 1.52 nM. On to `CC[C@H](C)[C@H](NC(=O)[C@H](CCCCN)NC(=O)[C@H](CCC(N)=O)NC(=O)[C@H](CCC(=O)O)NC(=O)[C@H](Cc1c[nH]c2ccccc12)NC(C)=O)C(=O)N[C@@H](CCC(=O)O)C(=O)N[C@@H](CCC(=O)O)C(=O)N[C@@H](CC(C)C)C(=O)N[C@@H](CC(C)C)C(=O)N[C@@H](CCCCN)C(=O)N[C@@H](CCCCN)C(=O)N[C@@H](C)C(=O)N[C@@H](CCC(=O)O)C(=O)N[C@@H](CCC(=O)O)C(=O)N[C@@H](CCC(N)=O)C(=O)N[C@@H](CCC(N)=O)C(=O)N[C@@H](CCCCN)C(=O)N[C@@H](CCCCN)C(=O)N[C@@H](CC(N)=O)C(=O)N[C@@H](CCC(=O)O)C(=O)N[C@@H](CCC(=O)O)C(=O)N[C@@H](CCC(=O)O)C(=O)N[C@@H](CC(C)C)C(=O)N[C@@H](CCCCN)C(=O)N[C@@H](CCCCN)C(=O)N[C@@H](CC(C)C)C(=O)N[C@@H](CCC(=O)O)C(=O)N[C@@H](CCCCN)C(=O)N[C@@H](CCCCNC(=O)CCOCCOCCOCCOCCOCCOCCOCCOCCOCCOCCOCCOCCNC(=O)c1ccc(CC2CCN(CCCN(C(=O)C3CCN(C(C)=O)CC3)c3ccc(C)c(Cl)c3)CC2)cc1)C(N)=O` (Ac-WEQKIEELLKKAEEQQKKNEEELKKLEKK([PEG12-X1])-NH2), for which the EC50 in test [6] was 0.35 nM.

Turning to `CC[C@H](C)[C@H](NC(=O)[C@H](CCCCN)NC(=O)[C@H](CCC(N)=O)NC(=O)[C@H](CCC(=O)O)NC(=O)[C@H](Cc1c[nH]c2ccccc12)NC(C)=O)C(=O)N[C@@H](CCC(=O)O)C(=O)N[C@@H](CCC(=O)O)C(=O)N[C@@H](CC(C)C)C(=O)N[C@@H](CC(C)C)C(=O)N[C@@H](CCCCN)C(=O)N[C@@H](CCCCN)C(=O)N[C@@H](C)C(=O)N[C@@H](CCC(=O)O)C(=O)N[C@@H](CCC(=O)O)C(=O)N[C@@H](CCC(N)=O)C(=O)N[C@@H](CCC(N)=O)C(=O)N[C@@H](CCCCN)C(=O)N[C@@H](CCCCN)C(=O)N[C@@H](CC(N)=O)C(=O)N[C@@H](CCC(=O)O)C(=O)N[C@@H](CCC(=O)O)C(=O)N[C@@H](CCC(=O)O)C(=O)N[C@@H](CC(C)C)C(=O)N[C@@H](CCCCN)C(=O)N[C@@H](CCCCN)C(=O)N[C@@H](CC(C)C)C(=O)N[C@@H](CCC(=O)O)C(=O)N[C@@H](CCCCN)C(=O)N[C@@H](CCCCNC(=O)CCOCCOCCOCCOCCOCCOCCOCCOCCOCCOCCOCCOCCOCCOCCOCCOCCOCCOCCOCCOCCOCCOCCOCCOCCNC(=O)c1ccc(CC2CCN(CCCN(C(=O)C3CCN(C(C)=O)CC3)c3ccc(C)c(Cl)c3)CC2)cc1)C(N)=O` (Ac-WEQKIEELLKKAEEQQKKNEEELKKLEKK([PEG24-X1])-NH2), the EC50 in test [6] was 0.12 nM. As to Ac-WEQKIEELLKKAEEQQKKNEEELKKLEK-NH2, in test [6], the EC50 was found to be 2.45 nM.

The EC50 is the concentration giving half of the maximal effect. By IC50 is commonly meant the concentration that inhibits the measured activity by half.
